Data: ChEMBL document CHEMBL1681702, “Biological activity and ligand binding mode to the progesterone receptor of A-homo analogues of progesterone” (Bioorg Med Chem, 2011)
Active and inactive are the calls of the source. The calls are words filed in the database; no cut-off is given here.

Legend:
[1] = target: T1, Progesterone receptor (Homo sapiens) (UniProt P06401); assay: Transactivation activity at human progesterone receptor isoform B expressed in human Cos1 cells co-transfected with luciferase reporter gene linked to MMTV promoter at 10^-6 M after 24 hrs; assay type: cell-based
T1 sequence (whole entry): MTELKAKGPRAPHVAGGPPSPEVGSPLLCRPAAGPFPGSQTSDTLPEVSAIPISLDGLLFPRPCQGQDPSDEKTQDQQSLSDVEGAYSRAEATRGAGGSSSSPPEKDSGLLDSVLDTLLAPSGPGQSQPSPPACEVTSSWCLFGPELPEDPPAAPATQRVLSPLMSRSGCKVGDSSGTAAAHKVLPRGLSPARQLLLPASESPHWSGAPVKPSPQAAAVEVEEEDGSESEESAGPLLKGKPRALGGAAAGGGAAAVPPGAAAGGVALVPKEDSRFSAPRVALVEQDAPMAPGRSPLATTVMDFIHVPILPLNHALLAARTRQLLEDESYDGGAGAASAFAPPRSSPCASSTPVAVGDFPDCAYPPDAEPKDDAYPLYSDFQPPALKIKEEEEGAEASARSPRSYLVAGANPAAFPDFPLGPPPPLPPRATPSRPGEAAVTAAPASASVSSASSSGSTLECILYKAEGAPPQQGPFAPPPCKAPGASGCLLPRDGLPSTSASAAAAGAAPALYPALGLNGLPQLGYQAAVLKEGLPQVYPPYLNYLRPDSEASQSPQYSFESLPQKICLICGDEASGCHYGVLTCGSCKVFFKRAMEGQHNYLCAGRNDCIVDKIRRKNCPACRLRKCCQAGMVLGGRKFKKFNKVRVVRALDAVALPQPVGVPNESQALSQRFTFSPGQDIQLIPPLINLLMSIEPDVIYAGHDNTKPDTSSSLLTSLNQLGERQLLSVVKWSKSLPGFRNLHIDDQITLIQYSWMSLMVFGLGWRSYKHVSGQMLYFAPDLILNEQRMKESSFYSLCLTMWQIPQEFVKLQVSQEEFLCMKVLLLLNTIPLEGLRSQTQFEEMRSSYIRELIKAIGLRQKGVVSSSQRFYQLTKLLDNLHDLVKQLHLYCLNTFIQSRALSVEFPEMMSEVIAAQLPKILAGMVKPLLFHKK

[2] = target: T2, Mineralocorticoid receptor (Homo sapiens) (UniProt P08235); assay: Antagonist activity at human MR expressed in human Cos1 cells co-transfected with luciferase reporter gene linked to MMTV promoter and pCMV-LacZ vector assessed as effect on aldosterone-induced activity at 10^-5 M after 24 hrs; assay type: functional, cell-based
T2 sequence (whole entry): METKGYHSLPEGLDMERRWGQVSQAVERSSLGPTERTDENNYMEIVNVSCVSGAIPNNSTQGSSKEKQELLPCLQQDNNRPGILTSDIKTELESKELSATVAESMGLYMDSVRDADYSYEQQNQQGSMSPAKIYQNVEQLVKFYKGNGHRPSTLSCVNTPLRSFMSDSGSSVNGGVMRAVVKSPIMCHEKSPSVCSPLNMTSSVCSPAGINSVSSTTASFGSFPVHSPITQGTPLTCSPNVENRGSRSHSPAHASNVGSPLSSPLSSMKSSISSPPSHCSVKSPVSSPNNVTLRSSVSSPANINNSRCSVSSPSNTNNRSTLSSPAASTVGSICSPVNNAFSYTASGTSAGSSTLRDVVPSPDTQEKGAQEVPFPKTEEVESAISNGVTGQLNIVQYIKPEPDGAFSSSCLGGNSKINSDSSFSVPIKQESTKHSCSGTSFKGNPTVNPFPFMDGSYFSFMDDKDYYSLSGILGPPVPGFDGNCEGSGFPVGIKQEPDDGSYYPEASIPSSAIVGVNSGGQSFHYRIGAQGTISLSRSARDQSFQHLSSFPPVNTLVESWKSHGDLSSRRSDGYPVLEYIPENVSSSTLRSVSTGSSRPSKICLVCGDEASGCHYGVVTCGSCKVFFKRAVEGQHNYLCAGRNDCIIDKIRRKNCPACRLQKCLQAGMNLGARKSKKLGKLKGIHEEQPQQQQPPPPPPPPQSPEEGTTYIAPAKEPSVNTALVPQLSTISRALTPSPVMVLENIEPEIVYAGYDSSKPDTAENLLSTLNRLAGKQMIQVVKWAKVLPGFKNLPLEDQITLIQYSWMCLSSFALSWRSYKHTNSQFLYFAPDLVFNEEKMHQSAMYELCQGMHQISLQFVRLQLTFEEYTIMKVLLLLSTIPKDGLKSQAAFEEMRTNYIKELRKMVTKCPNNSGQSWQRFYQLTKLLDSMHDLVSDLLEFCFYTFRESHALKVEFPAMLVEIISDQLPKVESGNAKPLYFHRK

[3] = target: T1, Progesterone receptor (Homo sapiens); assay: Agonist activity at human progesterone receptor in human T47D cells assessed as induction of Bcl-xL gene expression at 10^-6 M after 6 hrs by quantitative PCR; assay type: functional, cell-based
[4] = target: T1, Progesterone receptor (Homo sapiens); assay: Transactivation activity at human progesterone receptor isoform B expressed in human Cos1 cells co-transfected with luciferase reporter gene linked to MMTV promoter at 10^-7 M after 24 hrs; assay type: cell-based
[5] = target: T2, Mineralocorticoid receptor (Homo sapiens); assay: Transactivation activity at human MR expressed in human Cos1 cells co-transfected with luciferase reporter gene linked to MMTV promoter and pCMV-LacZ vector at 10^-5 M after 24 hrs; assay type: cell-based

SMILES	Activity [1]	Activity [2]	Activity [3]	Activity [4]	Activity [5]
CC(=O)[C@H]1CC[C@H]2[C@@H]3CC=C4CCC(=O)CC[C@]4(C)[C@H]3CC[C@]12C	Active	inactive	Active	Active	inactive
CC(=O)[C@H]1CC[C@H]2[C@@H]3CC=C4CC(=O)CCC[C@]4(C)[C@H]3CC[C@]12C	Active	inactive	Active	Active	inactive
